{"source": "patent US7696166B2", "about": "“Use of cyclosporin alkyne/alkene analogues for preventing or treating viral-induced disorders” (Albany Molecular Research, Inc., priority 2006, dated 2010)", "key": {"hepatitis C virus": {"system": "hepatitis C virus", "details": "Paeshuyse et al. 2005; cited from earlier work"}, "cyclophilin A": {"biological_target": "cyclophilin A (Homo sapiens, UniProt P62937)", "sequence (P62937 whole entry)": "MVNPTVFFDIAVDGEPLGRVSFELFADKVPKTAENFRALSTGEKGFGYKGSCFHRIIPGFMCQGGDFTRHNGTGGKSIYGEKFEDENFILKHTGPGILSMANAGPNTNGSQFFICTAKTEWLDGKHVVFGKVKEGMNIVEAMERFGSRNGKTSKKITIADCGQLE", "details": "background; cited from earlier work"}, "HIV-1": {"system": "HIV-1", "details": "literature reports, background; cited from earlier work"}, "[1]": {"system": "concanavalin A-stimulated murine splenocytes", "test": "Concanavalin A (ConA)-stimulated murine splenocyte assay", "type": "cell-based, BALB/c mice", "details": "for IC50: novel cyclosporin alkyne analogue, ConA-stimulated murine splenocytes, [3H]thymidine incorporation", "experimental": "Male BALB/c mice, at 5 to 7 weeks of age, were sacrificed by CO2 inhalation. Spleens were removed and dissociated by pushing through a nylon cell strainer. The splenocytes were washed in RPMI 1640/5% fetal calf serum (FCS) and pelleted at 400×g. Red blood cells were then lysed by resuspending the cell pellet in ACK lysis buffer (150 mM NH4Cl, 1 mM KHCO3, 0.1 mM EDTA, 3 mL per spleen) for 10 min at room temperature. After pelleting at 400×g, the cells were washed by resuspending in RPMI 1640/5% FCS and repelleting. The cell pellet was resuspended in RPMI 1640/5% FCS and again passed through a cell strainer to remove cell aggregates. The cells were then counted and adjusted to 2×10^6 cells/ml in RPMI 1640/10% FCS/50 μM 2-mercaptoethanol. Cell viability was assessed by Trypan blue staining. Cyclosporin A or the test compound and two micrograms of concanavalin A were added to the wells of a 96 well plate, prior to the addition of 2×10^5 splenocytes. The cells were cultured in a 37° C. CO2 incubator for 2 days and then pulsed with 1 μCi of [^3H]thymidine for 6 hours. Cells were harvested onto filtermats with a TomTec 96 well plate harvester and lysed with H2O. The filtermat and scintillation fluid were sealed in a plastic sleeve. [^3H]thymidine incorporation was measured with a Wallac Trilux plate counter. Initial screens were done at a fixed value of 100 ng/ml test compound. IC50s were calculated from 7 point concentration-response curves using GraphPad software."}, "[2]": {"details": "cited from earlier work"}, "calcineurin": {"system": "calcineurin", "details": "background; cited from earlier work"}}, "note": "Entries after “also recorded” stand apart in the source; their conditions may differ."}
{"compound": "C/C=C/C[C@@H](C)[C@@H](O)[C@H]1C(=O)N[C@@H](CC)C(=O)N(C)[C@H](C)C(=O)N(CC)[C@@H](C(C)C)C(=O)N[C@@H](C(C)C)C(=O)N(C)[C@@H](CC(C)C)C(=O)N[C@@H](C)C(=O)N[C@H](C)C(=O)N(C)[C@@H](CC(C)C)C(=O)N(C)[C@@H](CC(C)C)C(=O)N(C)[C@@H](C(C)C)C(=O)N1C", "note": "[DEBIO-025]", "values": [{"measurement": "inhibition of hepatitis C virus replication", "setting": "hepatitis C virus", "result": "potent and selective inhibition"}, {"measurement": "binding affinity for cyclophilin A", "setting": "cyclophilin A", "result": "potent binding affinity"}, {"measurement": "anti-HIV-1 activity", "setting": "HIV-1", "result": "effective for the treatment of HIV-1"}]}
{"compound": "CCC1NC(=O)C(C(O)C(C)CC=CC#CBr)N(C)C(=O)C(C(C)C)N(C)C(=O)C(CC(C)C)N(C)C(=O)C(CC(C)C)N(C)C(=O)C(C)NC(=O)C(C)NC(=O)C(CC(C)C)N(C)C(=O)C(C(C)C)NC(=O)C(CC(C)C)N(C)C(=O)CN(C)C1=O", "note": "(centres unmarked) [Example 15, cyclosporin alkynyl bromide]", "values": [{"measurement": "IC50", "setting": "[1]", "result": 8, "unit": "ng/mL"}]}
{"compound": "CC[C@@H]1NC(=O)[C@H]([C@H](O)[C@H](C)C/C=C/C#CC2CC2)N(C)C(=O)[C@H](C(C)C)N(C)C(=O)[C@H](CC(C)C)N(C)C(=O)[C@H](CC(C)C)N(C)C(=O)[C@@H](C)NC(=O)[C@H](C)NC(=O)[C@H](CC(C)C)N(C)C(=O)[C@H](C(C)C)NC(=O)[C@H](CC(C)C)N(C)C(=O)CN(C)C1=O", "note": "[Example 33, cyclosporin cyclopropyl alkyne]", "values": [{"measurement": "potency in immunosuppression compared to cyclosporin A and ISATX247", "setting": "[1]; FIG. 1 legend", "result": "enhanced or similar potency"}, {"measurement": "IC50", "setting": "[1]", "result": 9, "unit": "ng/mL"}]}
{"compound": "C/C=C/C[C@@H](C)[C@@H](O)[C@H]1C(=O)N[C@@H](CC)C(=O)N(C)CC(=O)N(C)[C@@H]([C@@H](C)CC)C(=O)N[C@@H](C(C)C)C(=O)N(C)[C@@H](CC(C)C)C(=O)N[C@@H](C)C(=O)N[C@H](C)C(=O)N(C)[C@@H](CC(C)C)C(=O)N(C)[C@@H](CC(C)C)C(=O)N(C)[C@@H](C(C)C)C(=O)N1C", "note": "[SDZ NIM 811]", "values": [{"measurement": "immunosuppressive activity", "setting": "[2]; Mlynar et al. 1997, background", "result": "completely devoid of immunosuppressive activity; also recorded: none of the immunosuppressive activity"}, {"measurement": "anti-HIV-1 activity", "setting": "HIV-1", "result": "potent and selective anti-HIV-1 activity"}, {"measurement": "inhibition of calcineurin", "setting": "calcineurin", "result": "does not inhibit"}]}
{"compound": "CC#CC[C@@H](C)[C@@H](O)[C@H]1C(=O)N[C@@H](CC)C(=O)N(C)CC(=O)N(C)[C@@H](CC(C)C)C(=O)N[C@@H](C(C)C)C(=O)N(C)[C@@H](CC(C)C)C(=O)N[C@@H](C)C(=O)N[C@H](C)C(=O)N(C)[C@@H](CC(C)C)C(=O)N(C)[C@@H](CC(C)C)C(=O)N(C)[C@@H](C(C)C)C(=O)N1C", "note": "[known cyclosporin alkyne]", "values": [{"measurement": "relative immunosuppressive activity compared to cyclosporin A", "setting": "[2]; Rich et al., J. Med. Chem. 33:999-1009 (1990)", "result": 10, "unit": "%"}]}
{"compound": "cyclosporin alkynyl iodide [Example 13]", "values": [{"measurement": "IC50", "setting": "[1]", "result": 1, "unit": "ng/mL"}]}
